Source: patent US20100273732A1, “COMBINATION METHODS OF TREATING CANCER” (priority 2003, published 2010)
pIC50: −log10 of the molar value. Where two headings read alike, the source gives them in different places.

Columns and labels:
[1] = system: T24 (bladder carcinoma) cells; test: alamarBlue proliferation inhibition, drug combination experiments, T24; format: cell-based; conditions: Homo sapiens, 96 h, read-out: 50% inhibition Effective Dose, T24, 4 days
Description: (§1) Drug combination experiments were performed on five human cancer cell lines: T24 (bladder carcinoma), LnCap (prostate), MCF7 (breast), DLCL (non-Hodgkin's lymphoma) and LCC18 (colon carcinoid). Each cell line was cultured and incubated at 37° C. in its required medium: MEM a (10% FCS), RPMI 1640 (10% FCS), DME HG (10% FCS), enhanced RPMI (10% FCS), and Hites medium (5% FCS), respectively.
(§2) DLCL, a suspension cell line, was plated on 96 well plates on the same day of the experiment. For T24, LnCap, DLCL and LCC18, 200 μL containing 2000 cells were plated into each well. For MCF7, 4000 cells/well were plated to account for the line's slower cell cycle.
(§3) Cells that received no treatment served as a control group.
(§4) To administer treatment to adherent cell lines (T24, LnCap, MCF7), media in each well was aspirated and replaced with 200 μL of media containing desired concentration of drug or drugs. For all other cell lines ([…] and DLCL), 22 μL of media containing 10 times the desired concentration of drug or drugs was added to 200 μL of media in each well.
(§5) After treatment, cells were incubated at 37° C. for 4 days. On the fourth day, each well was treated with 20 μL of alamarBlur™, an aqueous dye, and incubated for 4 hours at 37° C. The reduction of this dye, when absorbed by cells, is greater in proliferating cells than in non-proliferating cells because of an increased concentration of NADPH, FADH, FMNH and NADH. The reduction was measured by fluorescence using a SpectaMax GeminiXS® spectrofluorometric microtiter well plate reader (Molecular Devices Corporation, Sunnyvale, Calif.). Data was expressed as fluorescence emission intensity units as a function of time of incubation and analyzed using SOFTmax PRO® v. 4.0 software (Molecular Devices Corp. Sunnyvale, Calif.). In order to assess the percent inhibition of cell growth four days after drug treatment, the following formula was used:
(§6) 100−(Mean Intensity Units/Well with Identical Treatment)*100(Mean Intensity Units/Well in Control Group)
(§7) The concentrations used for treatment with each drug are based on the dose that inhibits 50% of proliferation for each drug. The following concentrations were tested:
(§8) a) 50% effective dose/4; b) 50% effective dose/2; c) 50% effective dose; d) 50% effective dose*2; and e) 50% effective dose*4. […] A polynomial relationship was defined between drug concentration and percent inhibition using various concentrations, and this function was used to predict the concentration of each drug required to inhibit proliferation of 50% of the cells.
(§9) The following criteria were established for assessing additive, synergistic and antagonistic interactions: […]

LnCap (prostate) cells = test: alamarBlue proliferation inhibition, drug combination experiments, LnCap; format: cell-based; conditions: Homo sapiens, 96 h
Description: as §1, §2, §3, §4, §5, §6, §7, §8, §9

T24 cell line = test: Cell proliferation and viability count, SAHA and 5-azacytidine, T24; format: cell-based, human; conditions: 200 nM 5-azacytidine (27.5 h pre-incubation), 5 μM SAHA or both
Description: Cells were cultured in T-150 flasks at 37° C. in RPMI with 10% FCS. Cells were diluted in a complete medium to a density of 5.0×10^4 cells/ml. The cells were incubated at 37° C. for 14 hours before treatment with 5-azacytidine to allow cells to adhere to the wells.
Concentrations of 5-azacytidine were prepared by serial dilution of from a 1 mM stock. After 14-hour incubation in complete medium, wells were aspirated and the medium was replaced to 1 ml of 5-azacytidine at the indicated concentration.
(§10) To assay for proliferation and viability, triplicate samples of cells were harvested and counted for proliferation and viability at the indicated time points as described above in Example 2.

[2] = system: carcinogen-induced (N-methylnitrosourea) mammary tumors; conditions: rats; SAHA in diet over 130 days; cited from earlier work
LnCap cell line = test: Cell proliferation and viability count, SAHA and gemcitabine, LnCap; format: cell-based, human; conditions: 2 nM gemcitabine, 5 μM SAHA or both, 72 hours
Description: Cells were plated at a density of 2.5×10^4 cells/ml in RMPI medium with 10% FCS, and were allowed to adhere to wells.
Gemcitabine was reconstituted in medium and the pH was adjusted to 7 using 1N NaOH. Concentrations of gemcitabine were prepared by serial dilution of gemcitabine in complete medium.
The cells were then cultured with medium containing the compound or combination of compounds.
as §10

[3] = in combination with SAHA 0.625 μM
[4] = in combination with SAHA 1.25 μM
[5] = in combination with SAHA 5.0 μM
[6] = in combination with SAHA 10.0 μM
[7] = read-out: 50% inhibition Effective Dose, LnCap, agent alone, 4 days
[8] = read-out: 50% inhibition Effective Dose, LnCap, in combination with SAHA 0.125 μM, 4 days
[9] = read-out: 50% inhibition Effective Dose, LnCap, in combination with SAHA 0.5 μM, 4 days
[10] = read-out: 50% inhibition Effective Dose, LnCap, in combination with SAHA 1.0 μM, 4 days
[11] = read-out: 50% inhibition Effective Dose, LnCap, in combination with SAHA 2.0 μM, 4 days
[12] = in combination with SAHA 2.5 μM
[13] = read-out: 50% inhibition Effective Dose, LnCap, in combination with SAHA 0.25 μM, 4 days

pIC50 ([1]; agent alone) | pIC50 [1, 3] | pIC50 [1, 4] | pIC50 [1, 5] | pIC50 [1, 6] | pIC50 (LnCap (prostate) cells; [7]) | pIC50 (LnCap (prostate) cells; [8]) | pIC50 (LnCap (prostate) cells; [9]) | pIC50 (LnCap (prostate) cells; [10]) | pIC50 (LnCap (prostate) cells; [11]) | pIC50 [1, 12] | pIC50 (LnCap (prostate) cells; [13]) | Compound | Effect on cell proliferation (FIG. 3) (T24 cell line) | Development and continued growth of mammary tumors [2] | Effect on cell proliferation (FIG. 2) (LnCap cell line)
4.85 | 4.88 | 4.94 | 5.57 | 5.82 | 5.52 | 5.28 | 5.80 | 5.72 | 6.00 |  |  | O=c1[nH]cc(F)c(=O)[nH]1 [5-FU, 5-Fluorouracil] |  |  | 
 |  |  |  |  |  |  |  |  |  |  |  | Nc1ncn([C@@H]2O[C@H](CO)[C@@H](O)[C@H]2O)c(=O)n1 [5-azacytidine] | significantly inhibited proliferation |  | 
8.68 | 9.29 | 9.14 | 9.54 | 10.30 | 8.68 | 8.92 | 9.22 | 9.47 | 9.92 | 9.23 | 8.92 | CC(=O)O[C@@]12CO[C@@H]1C[C@H](O)[C@@]1(C)C(=O)[C@H](O)C3=C(C)[C@@H](OC(=O)[C@H](O)[C@@H](NC(=O)OC(C)(C)C)c4ccccc4)C[C@@](O)([C@@H](OC(=O)c4ccccc4)[C@H]21)C3(C)C [Docetaxel] |  |  | 
8.29 | 8.39 | 8.55 | 8.85 | 9.55 | 8.29 | 8.29 | 8.42 | 8.72 | 8.72 | 8.72 | 8.39 | CCc1c2c(nc3ccc(OC(=O)N4CCC(N5CCCCC5)CC4)cc13)-c1cc3c(c(=O)n1C2)COC(=O)[C@]3(O)CC [Irinotecan] |  |  | 
 |  |  |  |  |  |  |  |  |  |  |  | O=C(CCCCCCC(=O)Nc1ccccc1)NO [SAHA, suberoylanilide hydroxamic acid] | significantly inhibited proliferation | effective at inhibiting the development and continued growth | significantly inhibited proliferation
 |  |  |  |  |  |  |  |  |  |  |  | Nc1ccn([C@@H]2O[C@H](CO)[C@@H](O)C2(F)F)c(=O)n1 [gemcitabine] |  |  | small effect
